Patent publication US20040228831A1, “Polymeric conjugates for tissue activated drug delivery” (priority 2003, published 2004)

Experiments:
murine melanoma B16-F10 = assay: Anti-tumor efficacy in mice bearing s.c. murine melanoma B16-F10, daily i.v. x5; type: in vivo; settings: 2 mg/kg (free drug's MTD), daily i.v. for 5 days
Method: (§1) Polymeric prodrug conjugate, conjugate, 6, a doxorubicin (Dox)-containing construct in which the drug moiety is attached to the PEG backbone via a cathepsin B-cleavable linker peptide was tested in mice bearing murine melanoma B16-F10 implanted s.c. Mice were treated by daily i.v. (tail vein) injection for 5 consecutive days, beginning on the day when tumors became palpable. The conjugate was studied at the maximum tolerated dose (MTD) of the free drug, 2 mg Dox/kg (equimolar comparison), and at the conjugate's MTD, 6 mg Dox/kg (equitoxic comparison). The conjugate, 6, or Dox administered at the free drug's MTD (2 mg/kg) had minimal anti-tumor effect (30% tumor reduction, 3.4 days delay in reaching 500 mg). But at the conjugate's MTD of 6 mg Dox/kg there was substantial activity (FIG. 1A). The conjugate reduced tumor by 81% and extended the time to reach 500 mg to 6.5 days. Therefore as a polymeric prodrug conjugate it was possible to increase the tolerated drug dose by a factor of 3, and this increase permitted the achievement of substantially greater anti-tumor efficacy.

[1] = Maximum tolerated dose of Dox and conjugate in mice, daily i.v. x5; type: in vivo; settings: daily i.v. injection for 5 consecutive days
Method: as §1

[2] = Maximum tolerated dose of Pt construct and oxaliplatin; type: in vivo, C57B1/6 mice; settings: mice
Text: Plasmin labile construct, 26, bearing an aspartic acid-platinum-diamino-cyclohexane (DACH) chelate was studied using C57B1/6 mice bearing s.c. B16-F10 murine melanoma (FIG. 1C). […] Thus, a substantially larger dose of Pt was safely delivered by the polymeric prodrug construct.

For `COc1cccc2c1C(=O)c1c(O)c3c(c(O)c1C2=O)C[C@@](O)(C(=O)CO)C[C@@H]3O[C@H]1C[C@H](N)[C@H](O)[C@H](C)O1` [Dox, doxorubicin], the “delay in reaching 500 mg” value (murine melanoma B16-F10) was 3.4 days, the tumor reduction (murine melanoma B16-F10) was 30% and the “maximum tolerated dose (MTD)” value [1] was 2 mg Dox/kg.

With `O=C1[O][Pt]2([NH][C@@H]3CCCC[C@H]3[NH]2)[O]C1=O` [oxaliplatin] the “maximum tolerated dose (MTD)” value [2] was 10 mg Pt/kg.
